Results on 28 compounds are retold here after US5885987A, “Phenylene derivatives” (Kowa Co., Ltd., priority 1996, dated 1999).

In one assay the target is T1, H1 receptor (Cavia porcellus, UniProt P31389).
T1 construct: guinea pig cerebromembranous protein; from tissue; host or cells: guinea pig cerebral (brain) membranes
Put plainly: H1 receptor binding inhibition test ([^3 H]mepyramin, guinea pig cerebromembranous protein). The settings on record: for inhibition at 100 µM: a: 100 μM, read-out: H1 receptor (%), inhibition rate; for Kd: read-out: H1 receptor, dissociation constant KD. How it is done:
1) H1 Receptor Binding Inhibition Test
An ice-cooled phosphate buffer was added to terminate the reaction, followed by immediate filtration through a Wattman CF/C filter. The filter was washed twice with 20 ml aliquots of the ice-cooled buffer. The radioactivity of the residue was measured by a liquid scintillation counter. From a measurement value obtained without the addition of the test compound and measurements values obtained upon addition of the test compound at various concentrations, the dose-response of the inhibitory action of the test compound was measured and the 50% inhibitory concentration (IC50) was determined. Using the Cheng-Prusoff formula, a dissociation constant was calculated from the IC50. In a binding assay, 10^-4 M R(-)dimethindene was used for the measurement of a nonspecific binding.

Another assay addresses T2, LTD4 receptor (Cavia porcellus, UniProt Q2NNR5).
T2 construct: guinea pig pulmomembranous protein; from tissue; host or cells: guinea pig lung membranes
T2 sequence (Q2NNR5 1-340): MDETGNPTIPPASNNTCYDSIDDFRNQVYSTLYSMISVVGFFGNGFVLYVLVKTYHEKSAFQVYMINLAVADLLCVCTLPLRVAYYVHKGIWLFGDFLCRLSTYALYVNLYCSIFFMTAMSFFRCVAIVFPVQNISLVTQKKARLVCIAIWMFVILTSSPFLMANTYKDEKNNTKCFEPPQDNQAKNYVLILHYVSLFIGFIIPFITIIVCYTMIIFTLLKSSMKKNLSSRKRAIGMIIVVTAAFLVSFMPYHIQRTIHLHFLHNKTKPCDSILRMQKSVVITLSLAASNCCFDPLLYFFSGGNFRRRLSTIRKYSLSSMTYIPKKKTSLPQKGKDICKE
Put plainly: LTD4 receptor binding inhibition test ([^3 H]leukotriene D4, guinea pig pulmomembranous protein). The conditions noted are these: for Kd: read-out: LTD4 receptor, dissociation constant KD; for inhibition at 10 µM: b: 10 μM; for inhibition at 10 µM / inhibition at 100 µM: read-out: LTD4 receptor (%), inhibition rate; for inhibition at 100 µM: a: 100 μM. How it is done:
2) LTD4 Receptor Binding Inhibition Test
An ice-cooled tris hydrochloride/sodium chloride buffer (10 mM/100 mM, pH 7.5) was added to terminate the reaction, followed by immediate filtration through a Wattman CF/C filter. The filter was washed twice with 20 ml aliguots of the ice-cooled buffer. The radioactivity of the residue was measured by a liquid scintillation counter. […] In a binding assay, 2 μM leukotriene D4 was used for the measurement of a nonspecific binding.

What is called inhibition is the percentage by which the read-out fell short of the control. In general, Kd refers to the constant that tells how readily two partners part at equilibrium.

Read-outs that look alike come from different tables or passages of the source.

T1 sequence (P31389 whole entry): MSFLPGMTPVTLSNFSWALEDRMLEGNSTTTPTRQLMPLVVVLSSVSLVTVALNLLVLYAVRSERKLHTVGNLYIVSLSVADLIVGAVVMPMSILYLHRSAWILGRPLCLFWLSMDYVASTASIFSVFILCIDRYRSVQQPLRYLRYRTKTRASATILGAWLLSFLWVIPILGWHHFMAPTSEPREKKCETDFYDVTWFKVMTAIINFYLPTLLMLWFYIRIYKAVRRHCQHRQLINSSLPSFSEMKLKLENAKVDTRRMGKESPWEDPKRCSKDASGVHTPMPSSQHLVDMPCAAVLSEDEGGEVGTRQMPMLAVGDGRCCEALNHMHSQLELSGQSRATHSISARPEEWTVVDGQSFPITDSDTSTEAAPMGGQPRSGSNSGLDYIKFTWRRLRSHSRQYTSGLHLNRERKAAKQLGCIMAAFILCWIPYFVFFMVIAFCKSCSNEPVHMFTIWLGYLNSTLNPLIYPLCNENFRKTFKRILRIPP

On to `O=C1CSc2cc(OCc3cccc(OCc4ccc5ccc(Cl)cc5n4)c3)ccc2N1` [Example 32, 7-[3-(7-chloro-2-quinolinylmethoxy)benzyloxy]-3,4-dihydro-2H-1,4-benzothiazin-3-one], for which, at H1 receptor, the inhibition at 100 µM was 43%. For the same compound, on LTD4 receptor, the Kd turned out to be 109 nM.

As for `O=C1CCc2ccc(OCc3cccc(OCc4ncc5ccccc5n4)c3)cc2N1` [Example 34, 7-[3-(2-quinazolinylmethoxy)benzyloxy]-1,2,3,4-tetrahydroquinolin-2-one], the figures for the dissociation constant (Kd) at H1 receptor and on LTD4 receptor were 100000 nM and 196 nM, respectively.

In the case of `Cn1c(COc2cccc(COc3ccc4c(c3)SCC(=O)N4)c2)nc2ccccc21` [Example 36, 7-(3-(N-methylbenzimidazo1-2-yl-methoxy)benzyloxy]-3,4-dihydro-2H-1,4-benzothiazin-3-one], the values for the Kd on H1 receptor and at LTD4 receptor were 16200 nM and 135 nM, respectively.

For `Cc1ccc(OCc2cccc(OCc3nc4ccccc4n3C)c2)c2c1NC(=O)C2(C)C` [Example 37, 4-[3-(N-methylbenzimidazol-2-yl-methoxy)benzyloxy)-3,3,7-trimethyl-2,3-hydro-1H-indol-2-one], at H1 receptor, the inhibition at 100 µM amounted to 28%. Moreover, on LTD4 receptor, the Kd was determined as 204 nM.

Consider `Cn1c(COc2ccc(COc3ccc4c(c3)SCC(=O)N4)cc2)nc2ccccc21` [Example 38, 7-(4-(N-methylbenzimidazol-2-yl-methoxy)benzyloxy]-3,4-dihydro-2H-1,4-benzothiazin-3-one], for which the inhibition at 100 µM at H1 receptor came out at 47%. For the same compound, the Kd at LTD4 receptor came out at 303 nM.

Turning to `O=C1CSc2cc(OCc3cccc(OCc4nc5ccccc5s4)c3)ccc2N1` [Example 40, 7-[3-(2-benzothiazolylmethoxy)benzyloxy)-3,4-dihydro-2H-1,4-benzothiazin-3-one], the inhibition at 100 µM on H1 receptor stood at 43%. Further, the Kd at LTD4 receptor amounted to 1390 nM.

With `O=C1CCc2ccc(OCc3cccc(OCc4nc5ccccc5s4)c3)cc2N1` [Example 41, 7-[3-(2-benzothiazolylmethoxy)benzyloxy]-1,2,3,4-tetrahydroquinolin-2-one], the Kd at H1 receptor was 128000 nM. Also, the inhibition at 10 µM on LTD4 receptor was determined as 34%.

Turning to `O=C1CCc2ccc(OCc3ccc(OCc4nc5ccccc5s4)cc3)cc2N1` [Example 42, 7-(4-(2-benzothiazolylmethoxy)benzyloxy]-1,2,3,4-tetrahydroquinolin-2-one], the Kd at H1 receptor was found to be 83600 nM. Also, the inhibition at 10 µM on LTD4 receptor came to 17%.

For the compound `CCOCCn1c(COc2cccc(COc3ccc(C)c4c3C(C)(C)C(=O)N4)c2)nc2ccccc21` [Example 43, 4-(3-(N-ethoxylethylbenzimidazol-2-yl-methoxy)benzyloxy)-3,3,7-trimethyl-2,3-dihydro-1H-indol-2-one], the values for the Kd at H1 receptor and on LTD4 receptor were 6060 nM and 5510 nM, respectively.

For `CCOCCn1c(COc2cccc(COc3ccc4c(c3)SCC(=O)N4)c2)nc2ccccc21` [Example 44, 7-[3-(N-ethoxylethylbenzimidazol-2-yl-methoxy)benzyloxy]-3,4-dihydro-2H-1,4-benzothiazin-3-one], the equilibrium dissociation constant (Kd) on H1 receptor is 8670 nM; at LTD4 receptor, 6300 nM.

Consider `CCOCCn1c(COc2ccc(COc3ccc(C)c4c3C(C)(C)C(=O)N4)cc2)nc2ccccc21` [Example 45, 4-[4-(N-ethoxylethylbenzimidazol-2-yl-methoxy)benzyloxy]-3,3,7-trimethyl-2,3-dihydro-1H-indol-2-one], for which the inhibition at 100 µM on H1 receptor worked out at 40%. The inhibition at 10 µM on LTD4 receptor turned out to be 32%.

As to `CCOCCn1c(COc2ccc(COc3ccc4c(c3)SCC(=O)N4)cc2)nc2ccccc21` [Example 46, 7-[(N-ethoxyethylbenzimidazol-2-yl-methoxy)benzyloxy]-3,4-dihydro-2H-1,4-benzothiazin-3-one], the dissociation constant Kd on H1 receptor (0.5 nM [^3 H]mepyramin, pH 7.5, 37° C., 30 minutes, calculated from IC50 with Cheng-Prusoff formula) is 5950 nM; at LTD4 receptor (0.2 nM [^3 H]leukotriene D4, pH 7.5, 22° C., 30 minutes, calculated from IC50), 6400 nM.

For `Cc1ccc(OC(=O)c2cccc(OCc3ccc4ccccc4n3)c2)c2cc(C#N)c(=O)[nH]c12` [Example 53, 3-cyano-8-methyl-5-[3-(2-quinolinylmethoxy)benzoyloxy]-1,2-dihydroquinolin-2-one], the inhibition at 100 µM on H1 receptor came to 38%. Moreover, the Kd at LTD4 receptor is 16 nM.

For the compound `Cc1ccc(OC(=O)c2cccc(OCc3ccc4ccccc4n3)c2)c2c1NC(=O)CC2` [Example 54, 8-Methyl-5-[3-(2-quinolinylmethoxy)benzoyloxy]-1,2,3,4-tetrahydroquinolin-2-one], on H1 receptor, the inhibition at 100 µM is 41%. Moreover, the Kd at LTD4 receptor stood at 129 nM.

With `O=C1CCc2cc(OC(=O)c3cccc(OCc4ccc5ccccc5n4)c3)ccc2N1` [Example 55, 6-[3-(2-Quinolinylmethoxy)benzoyloxy]-1,2,3,4-tetrahydroquinolin-2-one], the inhibition at 100 µM at H1 receptor stood at 43%. The Kd on LTD4 receptor is 348 nM.

`O=C1CCc2ccc(OC(=O)c3cccc(OCc4ccc5ccccc5n4)c3)cc2N1` [Example 56, 7-[3-(2-Quinolinylmethoxy)benzoyloxy]-1,2,3,4-tetrahydroquinolin-2-one]: the Kd at H1 receptor stood at 93000 nM. The inhibition at 100 µM at LTD4 receptor was determined as 12%.

As to `O=C1CCCc2cc(OC(=O)c3cccc(OCc4ccc5ccccc5n4)c3)ccc2N1` [Example 57], the equilibrium dissociation constant (Kd) on H1 receptor was found to be 57900 nM. For the same compound, the Ki at LTD4 receptor (read-out: LTD4 receptor, dissociation constant KD (converted)) is 851 nM.

Regarding `CC1(C)C(=O)Nc2ccc(OC(=O)c3cccc(OCc4ccc5ccccc5n4)c3)cc21` [Example 59, 3,3-Dimethyl-5-[3-(2-quinolinylmethoxy)benzoyloxy]-2,3-dihydro-1H-indol-2-one], the inhibition at 100 µM came out at 37% on H1 receptor and 53% on LTD4 receptor.

As to `CC1(C)C(=O)Nc2cc(OC(=O)c3cccc(OCc4ccc5ccccc5n4)c3)ccc21` [Example 60, 3,3-Dimethyl-6-[3-(2-quinolinylmethoxy)benzoyloxy]-2,3-dihydro-1H-indol-2-one], the inhibition at 100 µM on H1 receptor is 38%. Also, the Kd at LTD4 receptor came to 223 nM.

Regarding `CC1(C)C(=O)Nc2c(OC(=O)c3cccc(OCc4ccc5ccccc5n4)c3)cccc21` [Example 61, 3,3-Dimethyl-7-[3-(2-quinolinylmethoxy)benzoyloxyl]2,3-dihydro-1H-indol-2-one], the inhibition at 100 µM on H1 receptor is 28%. For the same compound, on LTD4 receptor, the inhibition at 10 µM came to 27%.

For `Cc1ccc(OC(=O)c2ccc(OCc3ccc4ccccc4n3)cc2)c2c1NC(=O)CC2` [Example 63, 8-Methyl-5-(4-(2-quinolinylmethoxy)benzoyloxy]-1,2,3,4-tetrahydroquinolin-2-one], the inhibition at 100 µM on H1 receptor stood at 40%. The equilibrium dissociation constant (Kd) on LTD4 receptor turned out to be 30.6 nM.

Regarding `O=C1CCc2cc(OC(=O)c3ccc(OCc4ccc5ccccc5n4)cc3)ccc2N1` [Example 64, 6-[4-(2-Quinolinylmethoxy)benzoyloxy]-1,2,3,4-tetrahydroquinolin-2-one], the inhibition at 100 µM on H1 receptor was found to be 40%; at LTD4 receptor, 12%.

Take `O=C1CCc2ccc(OC(=O)c3ccc(OCc4ccc5ccccc5n4)cc3)cc2N1` [Example 65, 7-(4-(2-Quinolinylmethoxy]benzoyloxy]-1,2,3,4-tetrahydroquinolin-2-one]: the inhibition at 100 µM is 43% at H1 receptor and 13% at LTD4 receptor.

`CC1(C)C(=O)Nc2ccc(OC(=O)c3ccc(OCc4ccc5ccccc5n4)cc3)cc21` [Example 67, 3,3-Dimethyl-5-[4-(2-quinolinylmethoxy)benzoyloxy]-2,3-dihydro-1H-indol-2-one]: the inhibition at 100 µM at H1 receptor came to 49%; on LTD4 receptor, 52%.

Take `CC1(C)C(=O)Nc2cc(OC(=O)c3ccc(OCc4ccc5ccccc5n4)cc3)ccc21` [Example 68, 3,3-Dimethyl-6-(4-(2-quinolinylmethoxy)benzoyloxy]-2,3-dihydro-1H-indol-2-one]: on H1 receptor, the inhibition at 100 µM stood at 28%. At LTD4 receptor, the dissociation constant Kd came out at 428 nM.

Take `CC1(C)C(=O)Nc2c(OC(=O)c3ccc(OCc4ccc5ccccc5n4)cc3)cccc21` [Example 69, 3,3-Dimethyl-7-(4-(2-quinolinylmethoxy)benzoyloxyy]-2,3-dihydro-1H-indol-2-one]: the inhibition at 100 µM at H1 receptor came to 33%. For the same compound, on LTD4 receptor, the Kd came out at 331 nM.

Regarding `O=C1CSc2c(cccc2NC(=O)c2cccc(OCc3ccc4ccccc4n3)c2)N1` [Example 70, 8-(3-(2-Quinolinylmethoxy)benzoylamino]-3,4-dihydro-2H-1,4-benzothiazin-3-one], the inhibition at 100 µM at H1 receptor turned out to be 37%. For the same compound, the Kd on LTD4 receptor came out at 208 nM.

Regarding `O=C1CSc2c(cccc2NC(=O)c2ccc(OCc3ccc4ccccc4n3)cc2)N1` [Example 71, 8-[4-(2-Quinolinylmethoxy)benzoylamino]-3,4-dihydro-2H-1,4-benzothiazin-3-one], the inhibition at 100 µM on H1 receptor stood at 28%; on LTD4 receptor, 0%.
